Experimental data taken from patent publication US20230099344A1, “COMPOUNDS AND METHODS FOR THE TARGETED DEGRADATION OF IRAK-4” (Arvinas Operations, Inc., priority 2021, published 2023).

Columns and labels:
Format in all cases: cell-based
IL8 = assay: IL-1β stimulated IL8 inhibition assay in PBMC; conditions: human PBMCs, IL-1β stimulation, compound overnight, IL8 by MSD after 24 hrs; for IC50: read-out: IL1β stim IL8 inhibition IC50; for Emax: read-out: IL1β stim IL8 inhibition Ymax
How it was run: (§1)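 Primary human PBMCs plated at 2.0×10^6 cells/mL are incubated with compound overnight. Stimulation follows using the donor's EC50 concentration of agonist. MSD detects secreted IL6/IL8 at 24 hrs.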

IRAK-4 [1] = target: T1, IRAK-4 (Homo sapiens, UniProt Q9NWZ3); assay: IRAK-4 ELISA, OCI-Ly10 degradation; set-up: endogenous in cells; conditions: treated overnight; for Dmax: OCI-Ly10, OCI-Ly10 cells; for DC50: OCI-Ly10 cells
T1 sequence (Q9NWZ3 1-460): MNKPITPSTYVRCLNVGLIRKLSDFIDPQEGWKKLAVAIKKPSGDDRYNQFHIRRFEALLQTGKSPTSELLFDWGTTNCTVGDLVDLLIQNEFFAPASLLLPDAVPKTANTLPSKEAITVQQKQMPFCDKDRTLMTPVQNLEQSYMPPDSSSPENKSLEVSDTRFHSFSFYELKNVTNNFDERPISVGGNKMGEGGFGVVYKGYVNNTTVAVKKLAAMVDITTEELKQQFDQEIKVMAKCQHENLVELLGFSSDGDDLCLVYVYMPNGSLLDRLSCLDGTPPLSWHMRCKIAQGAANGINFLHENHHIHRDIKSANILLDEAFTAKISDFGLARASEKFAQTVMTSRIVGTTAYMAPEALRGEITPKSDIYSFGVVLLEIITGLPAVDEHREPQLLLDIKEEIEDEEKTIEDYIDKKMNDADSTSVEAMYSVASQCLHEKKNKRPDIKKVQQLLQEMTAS
How it was run: (§2)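 Steps: seed cells (OCI-Ly10 1×10^6/ml; PBMC 2×10^6/ml); add compound the same day; incubate overnight; lyse; quantify IRAK-4 by matched-pair ELISA.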

IRAK-4 [2] = target: T1, IRAK-4; assay: IRAK-4 ELISA, PBMC degradation; set-up: endogenous in cells; host or cells: PBMC; conditions: treated overnight
How it was run: as §2

IL6 = assay: IL-1β stimulated IL6 inhibition assay in PBMC; conditions: PBMC, human PBMCs, IL-1β stimulation, compound overnight, IL6 by MSD after 24 hrs; for IC50: Homo sapiens, 24 h, read-out: IL1β stim IL6 inhibition IC50; for Emax: read-out: IL1β stim IL6 inhibition Ymax
How it was run: as §1

IC50 (IL8) [µM] | Dmax (IRAK-4 [1]) [%] | DC50 (IRAK-4 [1]) [µM] | DC50 (IRAK-4 [2]) [µM] | Dmax (IRAK-4 [2]) [%] | PBMC DC90 (IRAK-4 [2]) | IC50 (IL6) [µM] | SMILES | Emax (IL8) [%] | Emax (IL6) [%]
0.01 to 0.05 | ≥ 90 | < 0.01 | < 0.001 | ≥ 90 | A (A represents a DC90 value <10.0 nM) | < 0.01 | CC(C)Oc1cc2c(cc1NC(=O)c1cnn3cccnc13)CN(C1CCN(C3CCN(c4ccc5c(c4)CN(C4CCC(=O)NC4=O)C5=O)CC3)CC1)C2=O (stereo not shown) [Example 282] | < 70 | ≥ 90
0.05 to 0.1 | 70 to 80 | < 0.01 | 0.001 to 0.005 | 80 to 90 | A (A represents a DC90 value <10.0 nM) | 0.01 to 0.05 | O=C1CCC(N2Cc3cc(N4CC(CN5CCC(N6Cc7cc(NC(=O)c8cnn9cccnc89)c(OCC8CC8)cc7C6=O)CC5)C4)ccc3C2=O)C(=O)N1 (stereo not shown) [Example 29] | 70 to 80 | < 70
≥ 0.1 | ≥ 90 | < 0.01 | < 0.001 | ≥ 90 | A (A represents a DC90 value <10.0 nM) | < 0.01 | COc1cc2nn([C@H]3CC[C@H](N(C)C4CCN(c5ccc6c(c5)C(=O)N(C5CCC(=O)NC5=O)C6=O)CC4)CC3)cc2cc1NC(=O)c1cnn2cccnc12 (stereo partly shown) [Example 335] | – | ≥ 90
0.01 to 0.05 | ≥ 90 | < 0.01 | < 0.001 | ≥ 90 | A (A represents a DC90 value <10.0 nM) | 0.01 to 0.05 | O=C1CCC(N2C(=O)c3ccc(N4CC(CN5CCC([C@H](F)Cn6cc7cc(NC(=O)c8cnn9cccnc89)c(OCC8CC8)cc7n6)CC5)C4)cc3C2=O)C(=O)N1 (stereo partly shown) [Example 173] | < 70 | ≥ 90
< 0.01 | ≥ 90 | < 0.01 | < 0.001 | ≥ 90 | A (A represents a DC90 value <10.0 nM) | < 0.01 | O=C1CCC(N2C(=O)c3ccc(N4CCC(CN5CCC([C@H](F)Cn6cc7cc(NC(=O)c8cnn9cccnc89)c(OCC8CC8)cc7n6)CC5)CC4)cc3C2=O)C(=O)N1 (stereo partly shown) [Example 182] | < 70 | 80 to 90
0.01 to 0.05 | ≥ 90 | < 0.01 | < 0.001 | ≥ 90 | A (A represents a DC90 value <10.0 nM) | < 0.01 | COc1cc2nn([C@H]3CC[C@H](N(C)C4CN(c5ccc6c(c5)C(=O)N(C5CCC(=O)NC5=O)C6=O)C4)CC3)cc2cc1NC(=O)c1cnn2cccnc12 (stereo partly shown) [Example 334] | < 70 | ≥ 90
0.01 to 0.05 | ≥ 90 | < 0.01 | < 0.001 | ≥ 90 | A (A represents a DC90 value <10.0 nM) | < 0.01 | CN(C1CN(c2ccc3c(c2)CN(C2CCC(=O)NC2=O)C3=O)C1)[C@H]1CC[C@H](n2cc3cc(NC(=O)c4cnn5cccnc45)c(OCC4CC4)cc3n2)CC1 (stereo partly shown) [Example 339] | 70 to 80 | ≥ 90

The remaining lines, values behind:

SMILES | IC50 (IL8) [µM] | Dmax (IRAK-4 [1]) [%] | DC50 (IRAK-4 [1]) [µM] | DC50 (IRAK-4 [2]) [µM] | Dmax (IRAK-4 [2]) [%] | PBMC DC90 (IRAK-4 [2]) | IC50 (IL6) [µM] | Emax (IL8) [%] | Emax (IL6) [%]
COc1cc2nn(C3CCN(CC4CN(c5cccc6c5n(C)c(=O)n6C5CCC(=O)NC5=O)C4)CC3)cc2cc1NC(=O)c1cnn2cccnc12 (stereo not shown) [Example 379] | 0.01 to 0.05 | ≥ 90 | < 0.01 | < 0.001 | ≥ 90 | A (A represents a DC90 value <10.0 nM) | < 0.01 | 70 to 80 | 80 to 90
COc1cc2nn(C3CCN(CCc4ccc5c(c4)CN(C4CCC(=O)NC4=O)C5=O)CC3)cc2cc1NC(=O)c1cnn2cccnc12 (stereo not shown) [Example 143] | < 0.01 | ≥ 90 | < 0.01 | 0.001 to 0.005 | ≥ 90 | C (C represents a DC90 value ≥25.0 nM and <50 nM) | < 0.01 | 70 to 80 | ≥ 90
COc1cc2nn(C3CCN(CC4(F)CN(c5ccc6c(c5)CN(C5CCC(=O)NC5=O)C6=O)C4)CC3)cc2cc1NC(=O)c1cnn2cccnc12 (stereo not shown) [Example 274] | 0.05 to 0.1 | < 70 | < 0.01 | < 0.001 | 80 to 90 | A (A represents a DC90 value <10.0 nM) | 0.01 to 0.05 | 70 to 80 | ≥ 90
O=C1CCC(N2Cc3cc(OCCN4CCC(n5cc6cc(NC(=O)c7cnn8cccnc78)c(OCC7CC7)cc6n5)CC4)ccc3C2=O)C(=O)N1 (stereo not shown) [Example 122] | 0.05 to 0.1 | < 70 | < 0.01 | 0.001 to 0.005 | < 70 | B (B represents a DC90 value ≥10.0 nM and <25.0 nM) | 0.01 to 0.05 | 80 to 90 | ≥ 90
CC(C)Oc1cc2c(cc1NC(=O)c1cnn3cccnc13)CN(C1CCN(CC3CN(c4ccc5c(c4)CN(C4CCC(=O)NC4=O)C5=O)C3)CC1)C2=O (stereo not shown) [Example 4] | 0.01 to 0.05 | ≥ 90 | < 0.01 | < 0.001 | ≥ 90 | 0.004 µM | < 0.01 | 80 to 90 | ≥ 90
CC(C)Oc1cc2c(cc1NC(=O)c1cnn3cccnc13)CN(C1CCN(CC3CN(c4ccc5c(c4)C(=O)N(C4CCC(=O)NC4=O)C5=O)C3)CC1)C2=O (stereo not shown) [Example 5] | 0.05 to 0.1 | ≥ 90 | < 0.01 | 0.001 to 0.005 | 80 to 90 | 0.005 µM | 0.01 to 0.05 | 80 to 90 | 80 to 90
O=C1CCC(N2Cc3cc(N4CC(CN5CCC(n6cc7cc(NC(=O)c8cnn9cccnc89)c(OCC8CC8)cc7n6)CC5)C4)ccc3C2=O)C(=O)N1 (stereo not shown) [Example 134] | 0.01 to 0.05 | ≥ 90 | < 0.01 | < 0.001 | ≥ 90 | A (A represents a DC90 value <10.0 nM) | < 0.01 | 70 to 80 | ≥ 90
O=C1CCC(N2Cc3cc(CCN4CCC(N5Cc6cc(NC(=O)c7cnn8cccnc78)c(N7CCOCC7)cc6C5=O)CC4)ccc3C2=O)C(=O)N1 (stereo not shown) [Example 36] | ≥ 0.1 | < 70 | < 0.01 | 0.001 to 0.005 | < 70 | B (B represents a DC90 value ≥10.0 nM and <25.0 nM) | 0.01 to 0.05 | – | 70 to 80
COc1cc2nn(C3CCN(CC4(F)CN(c5ccc6c(c5)C(=O)N(C5CCC(=O)NC5=O)C6=O)C4)CC3)cc2cc1NC(=O)c1cnn2cccnc12 (stereo not shown) [Example 207] | 0.05 to 0.1 | ≥ 90 | < 0.01 | 0.001 to 0.005 | ≥ 90 | B (B represents a DC90 value ≥10.0 nM and <25.0 nM) | 0.01 to 0.05 | < 70 | ≥ 90
O=C1CCC(N2Cc3cc(N4CC(CN5CCC(n6cc7cc(NC(=O)c8cnn9cccnc89)c(C8CC8)cc7n6)CC5)C4)ccc3C2=O)C(=O)N1 (stereo not shown) [Example 136] | 0.05 to 0.1 | 70 to 80 | < 0.01 | < 0.001 | ≥ 90 | A (A represents a DC90 value <10.0 nM) | < 0.01 | 70 to 80 | ≥ 90
